Measurements published in US7015325B2, “Tryptase inhibitors” (ALTANA Pharma AG, priority 1999, dated 2006).
Counter-ions that a name gives are not always drawn.

Target: human tryptase
Assay: Inhibition of human tryptase (apparent dissociation constant, chromogenic substrate tos-Gly-Pro-arg-pNA)
Assay type: biochemical
Conditions: apparent dissociation constant in presence of substrate; heparin 0.1–50 μg/ml; equilibrium conditions; read-out: Kiapp
Description: The documented pathophysiological effects of mast cell tryptase are caused directly by the enzymatic activity of the protease. Accordingly, they are reduced or blocked by inhibitors which inhibit the enzymatic activity of the tryptase. A suitable measure for the affinity of a reversible inhibitor to the target protease is the equilibrium dissociation constant Ki of the enzyme-inhibitor complex. This Ki value can be determined via the effect of the inhibitor on the tryptase-induced cleavage of a chromogenic peptide-p-nitroanilide substrate or a fluorogenic peptide-aminomethylcoumarin substrate.
The dissociation constants for the tryptase-inhibitor complexes are determined under equilibrium conditions in accordance with the general proposals of Bieth (Bieth J G, Pathophysiological Interpretation of kinetic constants of protease inhibitors, Bull. Europ. Physiopath. Resp. 16:183–195, 1980) and the methods of Sommerhoff et al. (Sommerhoff C P et al., A Kazal-type inhibitor of human mast cell tryptase: Isolation from the medical leech Hirudo medicinalis, characterization, and sequence analysis, Biol. Chem. Hoppe-Seyler 375: 685–694, 1994).
Human tryptase is isolated from lung tissue or prepared recombinantly; the specific activity of the protease, determined by titration, is usually greater than 85% of the theoretical value. In the presence of heparin (0.1–50 μg/ml) for stabilizing the protease, constant amounts of the tryptase are incubated with increasing amounts of the inhibitors. After an equilibrium between the reaction partners has formed, the remaining enzyme activity after addition of the peptide-p-nitroanilide substrate tos-Gly-Pro-arg-pNA is determined and the cleavage of the latter is monitored at 405 nm for 3 min. Alternatively, the remaining enzymatic activity can also be determined using fluorogenic substrates. The apparent dissociation constants Kiapp (i.e. in the presence of substrate) are subsequently determined by adapting the enzyme rates to the general equation for reversible inhibitors (Morrison J F, Kinetics of the reversible inhibition of enzyme-catalyzed reactions by tight-binding inhibitors, Biochim. Biophys. Acta 185, 269–286, 1969) using non-linear regression: VI/V0=1−{Et+It+Kiapp−[(Et+It+Kiapp)^2−4EtIt]^1/2}/2Et VI and V0 are the rates in the presence and absence, respectively, of the inhibitor, and Et and It are the tryptase and inhibitor concentrations, respectively.
The apparent dissociation constants determined for the compounds according to the invention are shown in Table A below, where the numbers of the compounds correspond to the numbers of the compounds in the examples.

| SMILES | Ki |
| --- | --- |
| NC[C@H]1CC[C@H](C(=O)N2CCN(C(=O)OCCOCC#CCOCCOC(=O)N3CCN(C(=O)[C@H]4CC[C@H](CN)CC4)CC3)CC2)CC1 [Compound 1, 1,4-Bis-[4-(trans-4-aminomethylcyclohexylcarbonyl)-1-piperazinylcarbonyl-1-oxyethyl-2-oxy]-2-butyne dihydrochloride] | 86 nM |
| NCc1ccc(CNC(=O)N2CCN(C(=O)OCCOCC#CCOCCOC(=O)N3CCN(C(=O)NCc4ccc(CN)cc4)CC3)CC2)cc1 [Compound 2, 1,4-Bis-[4-(4-aminomethylbenzylaminocarbonyl)-1-piperazinylcarbonyl-1-oxyethyl-2-oxy]-2-butyne dihydrochloride] | 0.35 nM |
| NCc1cccc(CNC(=O)N2CCN(C(=O)OCCOCC#CCOCCOC(=O)N3CCN(C(=O)NCc4cccc(CN)c4)CC3)CC2)c1 [Compound 3, 1,4-Bis-[4-(3-aminomethylbenzylaminocarbonyl)-1-piperazinylcarbonyl-1-oxyethyl-2-oxy]-2-butyne dihydrochloride] | 8 nM |
| NCc1ccc(CNC(=O)N2CCN(C(=O)OCC#CC#CCOC(=O)N3CCN(C(=O)NCc4ccc(CN)cc4)CC3)CC2)cc1 [Compound 4, 1,6-Bis-[4-(4-aminomethylbenzylaminocarbonyl)-1-piperazinylcarbonyl-1-oxy]-2,4-hexadiyne dihydrochloride] | 0.25 nM |
| NCc1ccc(CNC(=O)N2CCN(C(=O)OCCCCC#CC#CCCCCOC(=O)N3CCN(C(=O)NCc4ccc(CN)cc4)CC3)CC2)cc1 [Compound 5, 1,12-Bis-[4-(4-aminomethylbenzylaminocarbonyl)-1-piperazinylcarbonyl-1-oxy]-5,7-dodecadiyne dihydrochloride] | 12 nM |
| NCc1cccc(CNC(=O)N2CCN(C(=O)OCCCCC#CC#CCCCCOC(=O)N3CCN(C(=O)NCc4cccc(CN)c4)CC3)CC2)c1 [Compound 6, 1,12-Bis-[4-(3-aminomethylbenzylaminocarbonyl)-1-piperazinylcarbonyl-1-oxy]-5,7-dodecadiyne dihydrochloride] | 1.4 nM |
| NCc1cccc(CNC(=O)N2CCN(C(=O)OCC#CC#CCOC(=O)N3CCN(C(=O)NCc4cccc(CN)c4)CC3)CC2)c1 [Compound 7, 1,6-Bis-[4-(3-aminomethylbenzylaminocarbonyl)-1-piperazinylcarbonyl-1-oxy]-2,4-hexadiyne dihydrochloride] | 8 nM |
